Measured values as given in ChEMBL document CHEMBL1201862, “PubChem BioAssay data set” (2004).
One block for each compound: values may come before it. Activity calls are given as the source filed them.

Legend:
[1] = molecular target: T1, ATP-dependent translocase ABCB1 (Homo sapiens, UniProt P08183); experiment: P-gp JC-1 efflux blockade concentration-response – Jurkat-DNR cells, flow cytometry, set 2, dose response (AID 504569); type: functional; conditions: read-out: EC50_MICROM_;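 further: potency of pump inhibitors that raise cellular JC-1 green fluorescence up to the nicardipine level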
T1 sequence (P08183 whole entry): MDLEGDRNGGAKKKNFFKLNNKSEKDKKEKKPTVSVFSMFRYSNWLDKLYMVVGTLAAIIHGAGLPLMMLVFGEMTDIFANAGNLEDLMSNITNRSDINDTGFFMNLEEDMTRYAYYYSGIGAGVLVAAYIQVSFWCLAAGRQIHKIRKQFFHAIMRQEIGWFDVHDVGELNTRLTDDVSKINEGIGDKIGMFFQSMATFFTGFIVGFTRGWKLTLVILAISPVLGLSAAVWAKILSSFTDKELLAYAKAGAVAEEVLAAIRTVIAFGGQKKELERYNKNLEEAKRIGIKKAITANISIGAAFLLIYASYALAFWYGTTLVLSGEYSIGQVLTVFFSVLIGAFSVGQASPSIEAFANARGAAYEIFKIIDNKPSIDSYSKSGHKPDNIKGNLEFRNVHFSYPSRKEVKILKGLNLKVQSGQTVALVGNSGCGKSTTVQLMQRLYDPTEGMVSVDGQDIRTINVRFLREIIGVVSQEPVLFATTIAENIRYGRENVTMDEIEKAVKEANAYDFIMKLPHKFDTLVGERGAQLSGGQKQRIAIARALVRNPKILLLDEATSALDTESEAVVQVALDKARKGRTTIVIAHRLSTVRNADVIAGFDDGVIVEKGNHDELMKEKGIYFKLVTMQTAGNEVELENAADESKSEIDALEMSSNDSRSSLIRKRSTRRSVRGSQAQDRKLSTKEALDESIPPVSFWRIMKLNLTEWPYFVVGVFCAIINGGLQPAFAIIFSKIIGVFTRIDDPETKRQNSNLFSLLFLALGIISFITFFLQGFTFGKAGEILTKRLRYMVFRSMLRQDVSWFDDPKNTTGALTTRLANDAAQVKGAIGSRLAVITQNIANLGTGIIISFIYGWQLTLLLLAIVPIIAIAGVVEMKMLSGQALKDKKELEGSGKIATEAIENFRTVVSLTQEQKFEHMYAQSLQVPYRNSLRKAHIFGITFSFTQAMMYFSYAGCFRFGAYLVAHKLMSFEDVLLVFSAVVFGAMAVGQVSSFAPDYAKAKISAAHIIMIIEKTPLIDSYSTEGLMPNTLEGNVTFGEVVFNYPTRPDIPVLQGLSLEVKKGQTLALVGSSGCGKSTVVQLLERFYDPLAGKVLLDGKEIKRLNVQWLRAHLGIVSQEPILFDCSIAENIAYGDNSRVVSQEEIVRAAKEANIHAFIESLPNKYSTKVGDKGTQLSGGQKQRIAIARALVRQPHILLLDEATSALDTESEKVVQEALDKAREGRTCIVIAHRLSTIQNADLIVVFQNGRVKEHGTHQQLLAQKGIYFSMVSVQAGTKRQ

[2] = molecular target: T1, ATP-dependent translocase ABCB1; experiment: inhibition of BCRP-mediated JC-1 efflux – Ig-MXP3 cells, flow cytometry, set 2, dose response (AID 504566); type: functional; conditions: read-out: EC50_MICROM_;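 further: flow cytometry median green fluorescence of retained JC-1 dye; potency of efflux pump inhibition measured as rising substrate retention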
Paired box protein Pax-8 = Paired box protein Pax-8 (Homo sapiens, UniProt Q06710); experiment: PAX8 transcriptional activity inhibition in RMG-I – RMG-I cells, luciferase, cherry-pick, dose response (AID 687027); type: functional, cell-based;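 further: luciferase reporter driven by Pax8 target thyroperoxidase promoter measured by SteadyGlo luminescence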
Paired box protein Pax-8, sequence (Q06710 whole entry): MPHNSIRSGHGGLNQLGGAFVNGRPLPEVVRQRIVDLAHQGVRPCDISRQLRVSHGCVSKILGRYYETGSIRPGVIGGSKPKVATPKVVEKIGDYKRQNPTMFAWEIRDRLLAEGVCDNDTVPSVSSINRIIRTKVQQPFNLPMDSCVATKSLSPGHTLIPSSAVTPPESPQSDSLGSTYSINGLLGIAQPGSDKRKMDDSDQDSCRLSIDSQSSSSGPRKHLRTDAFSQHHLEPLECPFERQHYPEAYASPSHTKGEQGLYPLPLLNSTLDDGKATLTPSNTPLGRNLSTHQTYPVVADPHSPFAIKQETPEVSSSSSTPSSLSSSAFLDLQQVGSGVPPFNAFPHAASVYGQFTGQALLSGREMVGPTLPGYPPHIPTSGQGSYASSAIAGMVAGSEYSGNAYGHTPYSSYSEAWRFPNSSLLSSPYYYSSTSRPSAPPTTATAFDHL

[3] = OVCAR-3 cell viability loss – plate reader, dry powder samples, PAX8 inhibitor project, dose response (AID 743044); type: functional, cell-based
[4] = molecular target: Potassium channel subfamily K member 9 (Homo sapiens, UniProt Q9NPC2); experiment: KCNK9 flux blockade, concentration-response – cell-based, FluxOR thallium flux, selectivity assay for TASK1 inhibitor project, SAR follow-up (AID 652211); type: functional;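 further: potency is for inhibitors of the channel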
Potassium channel subfamily K member 9, sequence (Q9NPC2 whole entry): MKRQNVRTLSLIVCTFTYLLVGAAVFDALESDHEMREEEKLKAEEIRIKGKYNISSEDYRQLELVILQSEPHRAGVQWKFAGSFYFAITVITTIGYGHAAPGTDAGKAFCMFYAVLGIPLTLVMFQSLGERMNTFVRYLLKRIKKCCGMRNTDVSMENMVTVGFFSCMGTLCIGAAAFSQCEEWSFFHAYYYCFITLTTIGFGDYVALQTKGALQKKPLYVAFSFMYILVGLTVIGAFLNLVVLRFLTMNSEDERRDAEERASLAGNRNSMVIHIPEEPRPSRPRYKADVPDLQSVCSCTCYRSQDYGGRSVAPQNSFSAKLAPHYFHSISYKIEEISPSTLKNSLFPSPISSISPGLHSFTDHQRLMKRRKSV

[5] = molecular target: Luciferin 4-monooxygenase (Photinus pyralis, UniProt P08659); experiment: Counter Screen for Luciferase-based Assay Positives. [Related pubchem assays: 620, 618, 411 ]
Luciferin 4-monooxygenase, sequence (P08659 whole entry): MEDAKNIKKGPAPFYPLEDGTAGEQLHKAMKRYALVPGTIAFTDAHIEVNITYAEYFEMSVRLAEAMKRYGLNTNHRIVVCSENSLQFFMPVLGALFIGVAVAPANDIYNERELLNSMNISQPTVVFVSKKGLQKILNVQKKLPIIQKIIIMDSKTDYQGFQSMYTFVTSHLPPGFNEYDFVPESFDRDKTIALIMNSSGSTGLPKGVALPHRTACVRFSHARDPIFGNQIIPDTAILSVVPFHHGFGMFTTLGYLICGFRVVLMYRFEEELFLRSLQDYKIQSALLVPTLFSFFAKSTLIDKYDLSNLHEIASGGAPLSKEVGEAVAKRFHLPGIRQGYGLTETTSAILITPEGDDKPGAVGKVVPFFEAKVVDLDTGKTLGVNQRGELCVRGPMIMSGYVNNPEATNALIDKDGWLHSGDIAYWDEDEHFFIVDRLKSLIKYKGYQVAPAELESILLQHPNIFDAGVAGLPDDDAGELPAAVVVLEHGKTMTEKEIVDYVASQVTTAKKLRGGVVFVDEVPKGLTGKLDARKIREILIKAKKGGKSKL

[6] = blockade of melanocortin 4 receptor signaling – cell-based, plate reader, cherry pick, counter-screen for LGR2 antagonist project, dose response (AID 743444); type: functional;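 further: transfected HEK 293 cells stimulated with alpha-MSH peptide; potency of inhibitors of the alpha-MSH evoked signal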
Protein skinhead-1 = molecular target: T2, Protein skinhead-1 (Caenorhabditis elegans, UniProt P34707); type: functional
T2 sequence (P34707 whole entry): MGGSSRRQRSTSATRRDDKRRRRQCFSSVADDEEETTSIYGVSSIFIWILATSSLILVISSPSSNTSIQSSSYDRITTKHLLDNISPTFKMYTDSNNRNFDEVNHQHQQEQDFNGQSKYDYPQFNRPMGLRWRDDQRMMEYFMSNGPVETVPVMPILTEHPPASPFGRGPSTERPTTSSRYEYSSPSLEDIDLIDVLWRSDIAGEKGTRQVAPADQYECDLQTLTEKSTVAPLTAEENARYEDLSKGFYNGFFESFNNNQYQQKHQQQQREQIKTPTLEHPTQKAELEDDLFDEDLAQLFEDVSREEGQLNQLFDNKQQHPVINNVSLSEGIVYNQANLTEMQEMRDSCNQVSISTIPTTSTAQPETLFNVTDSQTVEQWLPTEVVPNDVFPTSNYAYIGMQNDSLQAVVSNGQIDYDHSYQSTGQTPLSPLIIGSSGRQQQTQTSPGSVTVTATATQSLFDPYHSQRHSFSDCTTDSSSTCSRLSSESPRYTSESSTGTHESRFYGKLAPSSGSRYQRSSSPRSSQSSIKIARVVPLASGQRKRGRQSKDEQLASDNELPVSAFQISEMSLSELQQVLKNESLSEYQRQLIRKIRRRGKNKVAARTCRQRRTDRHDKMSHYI

[7] = toxicity toward HepG2 liver cells – cell-based, plate reader, cherry-pick, antagonist series, cytotoxicity control, dose response (AID 743416); type: functional
[8] = molecular target: T3, Oxysterols receptor LXR-beta (Homo sapiens, UniProt P55055); type: functional, cell-based;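 further: Cell-based luminescence dose-response assay of agonist activity at LXR, run as a confirmatory counterscreen to a daf-12 agonist screen; HEK293 cells with Gal4-LXR fusion and GAL4-driven luciferase reporter; agonist potency from rising luciferase signal of a Gal4-LXR reporter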
T3 sequence (P55055 whole entry): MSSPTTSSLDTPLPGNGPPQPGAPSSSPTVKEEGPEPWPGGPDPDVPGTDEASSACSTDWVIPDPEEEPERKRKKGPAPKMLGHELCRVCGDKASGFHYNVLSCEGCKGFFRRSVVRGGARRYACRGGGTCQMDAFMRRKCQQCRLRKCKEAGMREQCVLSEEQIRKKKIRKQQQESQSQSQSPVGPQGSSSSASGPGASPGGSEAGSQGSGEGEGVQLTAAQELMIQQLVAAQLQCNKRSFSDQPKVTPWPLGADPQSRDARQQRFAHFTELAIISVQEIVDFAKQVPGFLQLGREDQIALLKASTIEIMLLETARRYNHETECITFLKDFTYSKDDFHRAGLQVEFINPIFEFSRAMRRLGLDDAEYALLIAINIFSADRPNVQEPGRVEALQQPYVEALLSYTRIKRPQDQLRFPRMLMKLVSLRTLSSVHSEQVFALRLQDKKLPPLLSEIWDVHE

[9] = A549 cell cytotoxicity, dose response, cytotoxicity control, plate reader, cherry-pick, antagonist series (AID 743412); type: functional, cell-based
[10] = blockers of bursicon-stimulated LGR2 cAMP reporter – cell-based, HEK293, CRE-luciferase reporter, cherry pick, set 2, dose response (AID 743343); type: functional;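 further: transfected cells were stimulated with diluted bursicon conditioned medium after compound addition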
HT-1080 = experiment: HT1080 cell viability loss – fluorescence readout (AID 620); type: functional, cell-based; conditions: Homo sapiens
HEK293 = experiment: EBV LMP1 TES2 canonical NF-kB signalling blockers – cell-based, HEK293, luciferase, cherry-pick, dose response (AID 588343); type: functional; conditions: Homo sapiens

IC50 [4]: 7.21 µM (active)
SMILES: O=C(Nc1cccc(NC(=O)c2ccccc2C(F)(F)F)c1)c1ccccc1

IC50 [4]: 1.17 µM (active)
SMILES: COc1ccccc1C(=O)Nc1cccc(NC(=O)c2ccccc2OC(F)(F)F)c1

Continued, compound first:

SMILES: COc1ccc(-c2cc3nc(C)c(C)c(N4CCN(C(=O)c5ccsc5)CC4)n3n2)cc1
EC50 [1]: 3.83 µM (active) | EC50 [2]: 1.79 µM (active)

SMILES: O=C(c1ccsc1)N1CCN(c2cc(-c3ccccc3)nc3cc(-c4cccc(Cl)c4)nn23)CC1
EC50 [1]: 3.4 µM (active) | EC50 [2]: 1.63 µM (active)

SMILES: C[C@H](CO)N1C[C@H](C)[C@@H](CN(C)Cc2ccc(C(F)(F)F)cc2)OCCCC[C@H](C)Oc2ccc(NC(=O)Cc3ccccc3)cc2C1=O
AC50 (Paired box protein Pax-8): 9.66 µM (active) | AC50 [3]: 30.6 µM (active)

SMILES: Brc1ccc(-c2nc(-c3ccccn3)no2)o1
EC50 [5]: 2.58 µM (active) | AC50 [6]: 3.84 µM (active) | IC50 (Protein skinhead-1): 72.1 µM (inactive) | AC50 [7]: > 52 µM (inactive) | EC50 [8]: > 67.5 µM (inactive) | EC50 (cells): > 67.5 µM (inactive) | AC50 [9]: > 52 µM (inactive) | AC50 [10]: 2.92 µM (active) | EC50 (HT-1080): > 50 µM (not active) | AC50 (HEK293): 2.33 µM (active)
